The record followed here is PMC6534212, “Synthesis and biological evaluation of 3–(4-aminophenyl)-coumarin derivatives as potential anti-Alzheimer’s disease agents” (Journal of Enzyme Inhibition and Medicinal Chemistry, 2019).

Assay [1] deals with T1, AChE from Electrophorus electricus (Electrophorus electricus, UniProt O42275).
T1 construct: purchased Macklin
Kind of assay: biochemical. Type of assay: biochemical. To be noted: for IC50: AChE from Electrophorus electricus, mean ± SD (n=3); for AChE inhibitory activity (in words): verbal summary of Table 2; for Selectivity AChE/BuChE (in words): verbal summary of SI. The procedure: (§1) In the experiment, 0.05 mol/L phosphate buffered saline (PBS) of pH 8.0 was prepared first, and then the following solutions were prepared: 1.5 mmol/L Acetylthiocholine iodide (ATChI); 0.75 mmol/L 5, 5'-Dithiobis-(2-nitrobenzoic acid) (DTNB, Sigma Aldrich, St. Louis, MO); 0.2 U/mL Acetylcholinesterase (AChE, from […], Macklin); 0.5 U/mL Butyrylcholinesterase (BuChE, from equine serum, Aladdin, Shanghai, China); 1.5 mmol/L S-Butyrylthiocholine iodide (BTChI, Sigma Aldrich, St. Louis, MO). 4% sodium dodecyl sulphate (SDS) was prepared with secondary water. […] All solutions were stored in a refrigerator at 4 °C.
(§2) The AChE/BuChE inhibitory activity of the 3–(4-aminophenyl)-coumarin derivatives was determined by the method of Ellaman[28] with slight modifications. The experiment was divided into control group, sample blank group and sample group. Take a series of test tubes, the reagents were loaded in test tubes at the dose of Table 6. After incubation at 37 °C for 20 min, quickly add 1 mL of 4% SDS to stop the reaction. […] All experiments were run in triplicate. The absorbance was determined by UV spectrophotometer, and the inhibition rate of AChE and the IC50 value of each sample were calculated according to the formula. Inhibition rate % = {[(AC−AS)−ASB]/AC} ×100%, where AC (no sample added) is the absorbance of control group; AS is the absorbance of sample group; ASB (add sample solution but no substrate ATChI added) is the absorbance of sample blank group.

In another assay the target is T2, BuChE from equine serum (Equus caballus, UniProt P81908).
T2 construct: Butyrylcholinesterase (BuChE, from equine serum, Aladdin, Shanghai, China); purchased Aladdin, Shanghai, China; host or cells: equine serum
T2 sequence (P81908 whole entry): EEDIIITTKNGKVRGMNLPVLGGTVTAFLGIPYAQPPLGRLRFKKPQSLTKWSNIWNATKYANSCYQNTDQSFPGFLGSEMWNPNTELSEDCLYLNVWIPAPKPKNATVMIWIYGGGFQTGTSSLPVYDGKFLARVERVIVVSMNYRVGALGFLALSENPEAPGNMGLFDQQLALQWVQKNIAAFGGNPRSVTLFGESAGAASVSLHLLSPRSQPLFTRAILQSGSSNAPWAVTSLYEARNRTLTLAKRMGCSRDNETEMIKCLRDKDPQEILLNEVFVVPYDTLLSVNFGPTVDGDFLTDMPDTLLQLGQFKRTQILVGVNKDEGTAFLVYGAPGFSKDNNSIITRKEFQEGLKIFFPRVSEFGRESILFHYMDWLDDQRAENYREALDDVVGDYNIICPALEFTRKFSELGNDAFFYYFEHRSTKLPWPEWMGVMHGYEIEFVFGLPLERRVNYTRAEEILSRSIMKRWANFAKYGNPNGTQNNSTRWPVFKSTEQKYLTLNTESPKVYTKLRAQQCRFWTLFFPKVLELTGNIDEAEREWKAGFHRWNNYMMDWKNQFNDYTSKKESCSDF
Kind of assay: biochemical. Type of assay: biochemical. To be noted: for IC50: BuChE from equine serum, mean ± SD (n=3); for BuChE inhibitory activity (in words): verbal summary of Table 2, comparison with donepezil. The procedure:
as §1, §2
The method for determining BuChE is the same as the method for measuring AChE. The sample can be added with reference to Table 6, AChE is changed to BuChE, and the substrate ATChI is changed to substrate BTChI. The order of loading and the amount of loading are the same as Table 6. The absorbance was determined by UV spectrophotometer, and the inhibition rate of BuChE and the IC50 value of each sample were calculated according to the formula. The formula used is the same as AChE.

The test system of assay [2] is aluminium trichloride-induced zebrafish juveniles. Kind of assay: Effects of compounds on aluminium trichloride-induced behavioural inhibition of zebrafish juveniles (Zebrobox). To be noted: for Total movement distance: mean ± SE, n=8.
Protocol: The most suitable modelling concentrations were chosen, and then the effect of the compounds on the behaviour of the aluminium trichloride-induced zebrafish juveniles was explored.
The 72 hpf zebrafish were placed in a petri dish, and the normal developing juveniles were selected under a microscope in a 12-well plate. […] The continuous drug solution was exposed for 3 days. […] Each well was juvenile fish developed to 72 h post-exposure (hpe) and added 0.5 mL of culture water and 8 juveniles were set in each experimental group. The well plate was placed in the dark box of the zebrafish behaviour analysis system. The fish was first adapted to 10 min at the beginning of the experiment. The trajectories of the juveniles in each group were collected using zeblab software for 10 min, recorded every 5 min, and exported by software. Then calculate the total distance of each group of zebrafish juveniles.
The zebrafish with 72 hpf after fertilisation is placed in a petri dish. Under normal conditions, the normal developing juvenile fish are selected in a 12-well plate, and 15 juveniles per hole are set. Control group (0.5% DMSO), model group (5.0 mg/L AlCl3), 5.0 mg/L AlCl3 + test compound 5 μg/mL group, 5.0 mg/L AlCl3 + test compound 10 μg/mL group, 5.0 mg/L AlCl3 + test compound 50 μg/mL group, 5.0 mg/L AlCl3 + test compound 100 μg/mL group, three duplicate wells were set at each concentration. After the administration, the zebrafish was placed in a constant temperature incubator at 28 °C to continue the culture for 3 days. Changing the liquid (aquaculture water) every 24 h and removing dead young fish.

Entries after “also recorded” stand apart in the source; their conditions may differ. A value given as a limit tells only on which side of the number the result lay.

T1 sequence (O42275 24-633): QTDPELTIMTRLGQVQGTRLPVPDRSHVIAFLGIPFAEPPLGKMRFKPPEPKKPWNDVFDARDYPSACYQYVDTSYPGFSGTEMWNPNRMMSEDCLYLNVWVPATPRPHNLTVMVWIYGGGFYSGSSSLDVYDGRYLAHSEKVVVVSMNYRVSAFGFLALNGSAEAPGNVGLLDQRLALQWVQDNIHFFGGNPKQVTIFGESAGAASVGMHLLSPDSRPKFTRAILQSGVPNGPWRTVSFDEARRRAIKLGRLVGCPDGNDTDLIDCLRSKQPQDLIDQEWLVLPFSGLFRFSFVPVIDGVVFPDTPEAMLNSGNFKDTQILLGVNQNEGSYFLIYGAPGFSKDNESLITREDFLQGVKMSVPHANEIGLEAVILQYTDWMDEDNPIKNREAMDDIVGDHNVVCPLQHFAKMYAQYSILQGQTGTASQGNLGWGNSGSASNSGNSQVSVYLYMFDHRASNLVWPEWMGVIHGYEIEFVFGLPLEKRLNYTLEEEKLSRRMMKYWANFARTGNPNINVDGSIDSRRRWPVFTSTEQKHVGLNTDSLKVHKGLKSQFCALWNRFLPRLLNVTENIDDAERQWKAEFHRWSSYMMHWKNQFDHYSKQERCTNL

For the compound `Cc1cccc(C(=O)Nc2ccc(-c3cc4ccc(O)cc4oc3=O)cc2)c1` [Compound 4e, 3-[4-(3-methyl-benzoylamino)-phenyl]-7-hydroxy-coumarin], in assay [1], the IC50 (commonly the concentration that gives 50% inhibition) is above 50 µM, the “SI: selectivity index (IC50 BuChE/IC50 AChE)” value (from here on “SI: selectivity index”) is below 0.211 and the “AChE inhibitory activity (in words)” value is on record as “no inhibitory activity”. Further, 10.6 ± 0.132 µM corresponded to half-maximal inhibition against BuChE from equine serum (IC50).
With `Cc1cc(C)cc(C(=O)Nc2ccc(-c3cc4ccc(O)cc4oc3=O)cc2)c1` [Compound 4i, 3-[4-(3,5-dimethyl-benzoylamino)-phenyl]-7-hydroxy-coumarin], in assay [1], the IC50 was above 50 µM, the “SI: selectivity index” value was below 0.045, the “Selectivity AChE/BuChE (in words)” value was “highly selective for BuChE” and the “AChE inhibitory activity (in words)” value is on record as “no inhibitory activity”. At BuChE from equine serum, the IC50 is 2.26 ± 0.225 µM and the “BuChE inhibitory activity (in words)” value was “better than donepezil”.
Take `COc1cccc2cc(-c3ccc(NC(=O)c4cccs4)cc3)c(=O)oc12` [Compound 7d, 3-[4-(thiophene-2-formylamino)-phenyl]-8-methoxy-coumarin]: the values for the IC50 (in assay [1]; at BuChE from equine serum) were 6.63 ± 0.12 µM and 4.65 ± 0.245 µM, respectively. Also, in assay [1], the “SI: selectivity index” value stood at 0.700. Also, the “AChE inhibitory activity (in words)” value in assay [1] is recorded as “moderate to excellent AChE inhibitory activity”. The Total movement distance is 202.9 ± 6.2 cm in assay [2] (5 mg/L compound + 5.0 mg/L AlCl3, 3 days); 208.4 ± 9.7 cm in assay [2] (10 mg/L compound + 5.0 mg/L AlCl3, 3 days); 224.2 ± 9.2 cm in assay [2] (50 mg/L compound + 5.0 mg/L AlCl3, 3 days); 235.4 ± 11.4 cm in assay [2] (100 mg/L compound + 5.0 mg/L AlCl3, 3 days). In assay [2] (compared with the model group), the “Effect on behavioural inhibition of zebrafish induced by aluminium trichloride (in words)” value was “certain therapeutic effects; also recorded: could alleviate the behavioural inhibition symptoms”.
As for `O=C(Nc1ccc(-c2cc3ccc(O)cc3oc2=O)cc1)c1ccccc1F` [Compound 4g, 3-[4-(2-fluoro-benzoylamino)-phenyl]-7-hydroxy-coumarin], in assay [1], the IC50 is above 50 µM, the “SI: selectivity index” value is below 0.489 and the “AChE inhibitory activity (in words)” value is “no inhibitory activity”. Also, the midpoint of inhibition at BuChE from equine serum, the IC50, lay at 24.5 ± 0.535 µM.
In the case of `COc1cccc2cc(-c3ccc(NC(=O)c4ccccc4F)cc3)c(=O)oc12` [Compound 4p, 3-[4-(2-fluoro-benzoylamino)-phenyl]-8-methoxy-coumarin], in assay [1], 48.9 ± 2.32 µM corresponded to half-maximal inhibition (IC50) and the “SI: selectivity index” value amounted to 0.326. For the same compound, on BuChE from equine serum, the IC50 was 16 ± 0.475 µM.
For the compound `O=C(Nc1ccc(-c2cc3ccc(O)cc3oc2=O)cc1)c1cccc2ccccc12` [Compound 6a, 3-[4-(1-naphthoylamino)-phenyl]-7-hydroxy-coumarin], in assay [1], the IC50 was determined as 19.1 ± 0.981 µM and the “SI: selectivity index” value is on record as above 2.612. Further, at BuChE from equine serum, the IC50 is above 50 µM.
As for `O=C(Nc1ccc(-c2cc3ccc(O)cc3oc2=O)cc1)c1ccc(F)cc1` [Compound 4b, 3-[4-(4-fluoro-benzoylamino)-phenyl]-7-hydroxy-coumarin], in assay [1], the IC50 is above 50 µM, the “SI: selectivity index” value is below 0.050, the “Selectivity AChE/BuChE (in words)” value is listed as “highly selective for BuChE” and the “AChE inhibitory activity (in words)” value is on record as “no inhibitory activity”. For the same compound, on BuChE from equine serum, the IC50 stood at 2.44 ± 0.035 µM and the “BuChE inhibitory activity (in words)” value is reported as “better than donepezil”.
In the case of `O=C(Nc1ccc(-c2cc3ccc(O)cc3oc2=O)cc1)c1ccc(Cl)cc1` [Compound 4h, 3-[4-(4-chloro-benzoylamino)-phenyl]-7-hydroxy-coumarin], in assay [1], the IC50 is above 50 µM, the “SI: selectivity index” value was below 0.078, the “Selectivity AChE/BuChE (in words)” value was “highly selective for BuChE” and the “AChE inhibitory activity (in words)” value is given as “no inhibitory activity”. The IC50 against BuChE from equine serum was 3.88 ± 0.191 µM.
Turning to `COc1cccc2cc(-c3ccc(NC(=O)c4ccco4)cc3)c(=O)oc12` [Compound 5b, 3-[4-(furan-2-formylamino)-phenyl]-8-methoxy-coumarin], in assay [1], the midpoint of inhibition, the IC50, lay at 47.1 ± 1.59 µM and the “SI: selectivity index” value amounted to 0.098. At BuChE from equine serum, this compound gave an IC50 of 4.62 ± 0.055 µM.
Taken in the same sequence, the figures for `O=C(Nc1ccc(-c2cc3ccc(O)c(O)c3oc2=O)cc1)c1ccc(CCl)cc1` [Compound 4s, 3-[4-(4-Chloromethyl-benzoylamino)-phenyl]-7,8-dihydroxy-coumarin] were 48.2 ± 2.69 µM, above 1.037 and above 50 µM.
For the compound `COc1cccc2cc(-c3ccc(NC(=O)c4cccc(C)c4)cc3)c(=O)oc12` [Compound 4o, 3-[4-(3-methyl-benzoylamino)-phenyl]-8-methoxy-coumarin], in assay [1], the IC50 was 8.26 ± 0.581 µM, the “SI: selectivity index” value is reported as above 6.054, the “Selectivity AChE/BuChE (in words)” value was “highly selective for AChE” and the “AChE inhibitory activity (in words)” value is listed as “moderate to excellent AChE inhibitory activity”. At BuChE from equine serum, the IC50 is above 50 µM.
For `COc1cccc2cc(-c3ccc(NC(=O)c4cccc(Cl)c4)cc3)c(=O)oc12` [Compound 4n, 3-[4-(3-chloro-benzoylamino)-phenyl]-8-methoxy-coumarin], in assay [1], the IC50 is above 50 µM and the “SI: selectivity index” value is reported as below 0.020. For the same compound, at BuChE from equine serum, the IC50 was determined as 0.951 ± 0.159 µM and the “BuChE inhibitory activity (in words)” value is “better than donepezil”.
`COc1cccc2cc(-c3ccc(NC(=O)c4ccc(Cl)nc4)cc3)c(=O)oc12` [Compound 7c, 3-[4-(6-chloro-N-nicotinamide)-phenyl]-8-methoxy-coumarin]: in assay [1], the IC50 is 19.2 ± 1.64 µM and the “SI: selectivity index” value came to 0.176. The IC50 on BuChE from equine serum stood at 3.38 ± 0.342 µM.
Regarding `O=C(Nc1ccc(-c2cc3ccc(O)cc3oc2=O)cc1)c1cccc(F)c1` [Compound 4a, 3-[4-(3-fluoro-benzoylamino)-phenyl]-7-hydroxy-coumarin], in assay [1], the IC50 was above 50 µM, the “Selectivity AChE/BuChE (in words)” value is “highly selective for BuChE” and the “AChE inhibitory activity (in words)” value is listed as “no inhibitory activity”. Besides, half-maximal inhibition against BuChE from equine serum (IC50) was put at 3.89 ± 0.955 µM.
As for `Cc1ccc(C(=O)Nc2ccc(-c3cc4ccc(O)cc4oc3=O)cc2)cc1` [Compound 4c, 3-[4-(4-methyl-benzoylamino)-phenyl]-7-hydroxy-coumarin], in assay [1], the IC50 is above 50 µM and the “AChE inhibitory activity (in words)” value is given as “no inhibitory activity”. Further, at BuChE from equine serum, the IC50 worked out at 15.6 ± 1.82 µM.
Take `COc1cccc2cc(-c3ccc(NC(=O)c4cccc5ccccc45)cc3)c(=O)oc12` [Compound 6b, 3-[4-(1-naphthoylamino)-phenyl]-8-methoxy-coumarin]: the IC50 (in assay [1]; on BuChE from equine serum) was above 50 µM throughout.
For the compound `O=C(Nc1ccc(-c2cc3ccc(O)cc3oc2=O)cc1)c1ccc(CCl)cc1` [Compound 4d, 3-[4-(4-chloromethyl-benzoylamino)-phenyl]-7-hydroxy-coumarin], the figures for the IC50 (in assay [1]; on BuChE from equine serum) were 47.2 ± 3.57 µM and 8.9 ± 1.18 µM, respectively. Moreover, the “SI: selectivity index” value in assay [1] came out at 0.189.
Regarding `O=C(Nc1ccc(-c2cc3ccc(O)cc3oc2=O)cc1)c1ccc2ccccc2c1` [Compound 7a, 3-[4-(2-naphthoylamino)-phenyl]-7-hydroxy-coumarin], the IC50 in assay [1] was above 50 µM; on BuChE from equine serum it was 2.07 ± 0.045 µM. Besides, the “BuChE inhibitory activity (in words)” value on BuChE from equine serum is given as “better than donepezil”.
For the compound `COc1ccccc1C(=O)Nc1ccc(-c2cc3cccc(OC)c3oc2=O)cc1` [Compound 4q, 3-[4-(2-methoxy-benzoylamino)-phenyl]-8-methoxy-coumarin], in assay [1], the IC50 stood at 48.2 ± 3.13 µM and the “SI: selectivity index” value is recorded as above 1.037. This compound also showed an IC50 at BuChE from equine serum above 50 µM.
